Assays:
Flag-ARID4A = biological target: T1, Flag-ARID4A (Homo sapiens, UniProt P29374); test: CETSA in cells expressing Flag-ARID4A; type: cell-based; settings: 10 μM, 2 h
T1 construct: expressed in transfected cells
T1 sequence (P29374 1-1257): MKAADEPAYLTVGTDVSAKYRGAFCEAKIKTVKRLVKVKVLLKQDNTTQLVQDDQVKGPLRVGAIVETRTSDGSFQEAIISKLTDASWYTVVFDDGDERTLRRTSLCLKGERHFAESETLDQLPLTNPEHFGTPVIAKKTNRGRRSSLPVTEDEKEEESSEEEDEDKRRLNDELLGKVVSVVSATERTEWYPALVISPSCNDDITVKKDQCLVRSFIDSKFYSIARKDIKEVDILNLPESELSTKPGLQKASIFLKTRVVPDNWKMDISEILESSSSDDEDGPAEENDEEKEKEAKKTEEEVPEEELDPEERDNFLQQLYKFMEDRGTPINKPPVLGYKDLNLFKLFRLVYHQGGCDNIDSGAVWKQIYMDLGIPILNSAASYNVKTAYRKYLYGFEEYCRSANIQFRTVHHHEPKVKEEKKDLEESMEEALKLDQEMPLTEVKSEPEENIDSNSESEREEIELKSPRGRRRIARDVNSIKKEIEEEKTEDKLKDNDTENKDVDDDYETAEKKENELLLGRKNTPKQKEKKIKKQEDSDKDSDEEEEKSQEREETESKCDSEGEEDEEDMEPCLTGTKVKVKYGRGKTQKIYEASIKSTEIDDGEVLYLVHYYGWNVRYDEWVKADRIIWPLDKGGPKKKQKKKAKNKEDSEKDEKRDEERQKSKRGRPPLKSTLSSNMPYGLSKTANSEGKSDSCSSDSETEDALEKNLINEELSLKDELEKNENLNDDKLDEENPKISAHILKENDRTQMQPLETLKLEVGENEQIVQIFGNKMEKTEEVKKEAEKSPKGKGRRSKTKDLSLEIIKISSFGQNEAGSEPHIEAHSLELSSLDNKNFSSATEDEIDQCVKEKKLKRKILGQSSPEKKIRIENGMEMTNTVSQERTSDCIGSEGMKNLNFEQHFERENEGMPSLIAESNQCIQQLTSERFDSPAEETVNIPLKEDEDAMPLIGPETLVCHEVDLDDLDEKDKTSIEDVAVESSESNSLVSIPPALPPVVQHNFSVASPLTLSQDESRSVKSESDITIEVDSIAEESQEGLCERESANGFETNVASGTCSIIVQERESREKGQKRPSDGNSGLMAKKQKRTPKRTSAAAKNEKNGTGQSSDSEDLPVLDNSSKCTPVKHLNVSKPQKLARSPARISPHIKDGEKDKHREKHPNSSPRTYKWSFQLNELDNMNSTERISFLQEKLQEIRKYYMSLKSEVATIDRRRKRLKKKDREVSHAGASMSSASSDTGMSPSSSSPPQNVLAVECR
Method: (B-C) show cells expressing HA-ARID4B (C) or HA-ARID4BIC (D) treated or not with ARD150 (10 μM) for 2 h were used for CESTA. […] (D-E) show cells expressing HA-ARID4B (D) or Flag-ARID4A (E) treated or not with RWR-18 (10 μM) for 2 h were used for CESTA. […] Data are means±SEM from three experiments. *P<0.05, **P<0.01, ns, not significant.
Using CETSA (cellular thermal shift assay) to examine whether ARD150 or RWR-18 binds to ARID4B, MCF7 cells treated or not with ARD150 or RWR-18 for 2 h were collected, followed by heating at 46, 49, 52, 55, and 58° C. to denature and precipitate ARID4B protein, cell lysis, removal of cell debris and aggregates by centrifugation, and finally detection of remaining thermostable ARID4B protein by western blot. The ARID4B aggregation temperatures without ARD150 were determined to be 49-52° C., but shifted to 52-55° C. after treatment with ARD150 and even more so with RWR-18 (FIG. 15A-D). To determine whether ARD150 and RWR-18 targets the chromodomain of ARID4B, CESTA was performed using chromodomain deletion mutant (ARID4BAC). HEK-293T cells expressing HA-ARID4B or HA-ARID4BAC were treated or not with ARD150 (10 μM) for 2 h and processed for CESTA.

MCF7 xenograft = MCF7 xenograft model; type: in vivo, SCID mice; settings: 25 mg/kg once every two days for 24 days
Method: The effects of RWR18 on tumor growth was determined using MCF7 xenograft model. When tumor in SCID mice reached 150-200 mm^3, mice were randomized to receive vehicle or RWR18 (25 mg/kg) once every two days for 24 days. […] Bar, 5 mm.
The effects of RWR18 on tumor growth was determined using MCF7 xenograft model. When tumor in SCID mice reaches 150-200 mm^3, mice were randomized to receive vehicle or RWR18 (25 mg/kg) once every two days for 24 days.
The effects of RWR18 on tumor growth was determined using MCF7 xenograft model. When tumor in SCID mice reached 150-200 mm^3, mice were randomized to receive vehicle or RWR18 (25 mg/kg) once every two days for 24 days.

[1] = Tolerability of ARD150 in mice; type: in vivo; settings: 125 mg/kg
Method: Representative HE images of liver and spleen from mice treated with vehicle or ARD150. Images from vehicle and the highest doses of ARD150 (125 mg/kg) were shown (B). […] Three biological replicates for each time point.
The rational development of a small molecule inhibitor (SMI) of a given protein-protein pathway involves a multidisciplinary approach: computational studies, chemical synthesis, characterization of compounds, and biological characterization. ARID4B lacks a defined crystal structure which requires a heavier emphasis on in silico studies to develop SMIs for this pathway. […] Initial biological characterization through cell-based assays and in vitro/in vivo studies have shown that ARD150 targets ARID4B and is tolerable in mice at extremely high concentrations (125 mg/kg). […] Thus, even though ARD150 is a first-in-class inhibitor, further optimization is necessary to improve its characteristics as a theoretical treatment option for endocrine-resistant breast cancer.

Structure (SMILES)	shift of aggregation temperatures of Flag-ARID4A (Flag-ARID4A)	tumor growth (MCF7 xenograft)	percentage of apoptotic cells in tumors (MCF7 xenograft; versus vehicle)	tolerability in mice [1]
O=C(COc1ccc(OCc2ccccc2)cc1)NCCCN1CCOCC1 [RWR-18]	no shift was observed	inhibited tumor growth	increases	–
COc1ccc(C(=O)NCCCN2CCOCC2)cc1OC [ARD150]	–	–	–	tolerable
